Measured values published in patent publication US20230117034A1, “PYRAZOLOTRIAZINES” (Bayer Aktiengesellschaft, priority 2019, published 2023).

Experiments:
[1] = biological target: T1, CDK12 (nuclear staining in CAL-120 cells) (Homo sapiens, UniProt Q9NYV4); test: CDK12 nuclear protein level: immunofluorescence/high content analysis (CAL-120); assay type: cell-based; settings: for DC50: CAL-120 cells, 24 h, immunofluorescence, 50% reduction of nuclear CDK12 staining intensity, median, read-out: CDK12 degradation IF, DC50- [mol/l] (median); for (IC50 CDK12 high ATP) to (Degradation DC50 CDK12) ratio: ratio of IC50 CDK12 high ATP kinase assay to DC50 CDK12 degradation (IF, CAL-120)
T1 construct: endogenous in cells; host or cells: CAL-120 human breast cancer cells (DSMZ ACC 459)
Method: In the context of the present invention, the term “DC50 CDK12” refers to the DC50 values obtained according to the assay described in this section (7) herein below, i.e. the DC50 values for the degradation of CDK12.
Plates are then incubated for 24 h at 37° C. in an humidified incubator and fixed with 4% PFA for 10 min. […] Nuclear and cytoplasmic intensity as well as the nuclear/cytoplasmic intensity ratio is determined by automated image analysis using custom generated scripts (MetaXpress). Data is then transferred to Genedata Screener software, normalized to DMSO and control and DC50 values (degrading concentration to achieve 50% reduction of nuclear CDK12 staining intensity relative to controls) are reported.

CDK2/CycE = biological target: T2, CDK2/CycE (Homo sapiens, UniProt P24941); test: CDK2/CycE kinase assay (TR-FRET, 2 mM ATP); assay type: biochemical; settings: 2 mM ATP (high ATP); median; read-out: CDK2/CyclinE, 2 mM ATP (high ATP), IC50 (median)
T2 construct: purchased ProQinase GmbH (Freiburg, Germany); host or cells: insect cells (Sf9)
From the text: CDK2/CycE-inhibitory activity of compounds of the present invention was quantified employing the CDK2/CycE TR-FRET assay as described in the following paragraphs.
Recombinant fusion proteins of GST and human CDK2 and of GST and human CycE, expressed in insect cells (Sf9) and purified by Glutathion-Sepharose affinity chromatography, were purchase from ProQinase GmbH (Freiburg, Germany). As substrate for the kinase reaction biotinylated peptide biotin-Ttds-YISPLKSPYKISEG (C-terminus in amid form) was used which can be purchased e.g. form the company JERINI peptide technologies (Berlin, Germany).
For the assay 50 nanoL of a 100 fold concentrated solution of the test compound in DMSO was pipetted into a black low volume 384 well microtiter plate or a black 1536 well microtiter plate (both Greiner Bio-One, Frickenhausen, Germany), 2 microL of a solution of CDK2/CycE in aqueous assay buffer [50 millimol/L Tris/HCl pH 8.0, 10 millimol/L MgCl2, 1.0 millimol/L dithiothreitol, 0.1 millimol/L sodium ortho-vanadate, 0.01% (v/v) Nonidet-P40 (Sigma)] were added and the mixture was incubated for 15 min at 22° C. to allow pre-binding of the test compounds to the enzyme before the start of the kinase reaction. Then the kinase reaction was started by the addition of 3 microL of a solution of adenosine-tri-phosphate (ATP, 3.33 millimol/L=>final conc. in the 5 microL assay volume is 2 millimol/L) and substrate (1.25 micromol/L=>final conc. in the 5 microL assay volume is 0.75 micromol/L) in assay buffer and the resulting mixture was incubated for a reaction time of 25 min at 22° C. The concentration of CDK2/CycE was adjusted depending of the activity of the enzyme lot and was chosen appropriate to have the assay in the linear range, typical concentrations were in the range of 10 ng/ml. The reaction was stopped by the addition of 3 microL of a solution of TR-FRET detection reagents (0.333 micromol/L streptavidine-XL665 [Cisbio Bioassays, Codolet, France] and 1.67 nanomol/L anti-RB(pSer807/pSer8l 1)-antibody from BD Pharmingen [#558389] and 2 nanomol/L LANCE EU-W1024 labeled anti-mouse IgG antibody [Perkin-Elmer, product no. AD0077, as an alternative a Terbium-cryptate-labeled anti-mouse IgG antibody from Cisbio Bioassays can be used]) in an aqueous EDTA-solution (167 millimol/L EDTA, 0.2% (w/v) bovine serum albumin in 100 millimol/L HEPES pH 7.5).
The resulting mixture was incubated 1 h at 22° C. to allow the formation of complex between the phosphorylated biotinylated peptide and the detection reagents. Subsequently the amount of phosphorylated substrate was evaluated by measurement of the resonance energy transfer from the Eu-chelate to the streptavidine-XL. Therefore, the fluorescence emissions at 620 nm and 665 nm after excitation at 350 nm was measured in a TR-FRET reader, e.g. a Pherastar (BMG Labtechnologies, Offenburg, Germany) or a Viewlux (Perkin-Elmer). The ratio of the emissions at 665 nm and at […] was taken as the measure for the amount of phosphorylated substrate. The data were normalised (enzyme reaction without inhibitor=0% inhibition, all other assay components but no enzyme=100% inhibition).

T1 sequence (Q9NYV4 whole entry): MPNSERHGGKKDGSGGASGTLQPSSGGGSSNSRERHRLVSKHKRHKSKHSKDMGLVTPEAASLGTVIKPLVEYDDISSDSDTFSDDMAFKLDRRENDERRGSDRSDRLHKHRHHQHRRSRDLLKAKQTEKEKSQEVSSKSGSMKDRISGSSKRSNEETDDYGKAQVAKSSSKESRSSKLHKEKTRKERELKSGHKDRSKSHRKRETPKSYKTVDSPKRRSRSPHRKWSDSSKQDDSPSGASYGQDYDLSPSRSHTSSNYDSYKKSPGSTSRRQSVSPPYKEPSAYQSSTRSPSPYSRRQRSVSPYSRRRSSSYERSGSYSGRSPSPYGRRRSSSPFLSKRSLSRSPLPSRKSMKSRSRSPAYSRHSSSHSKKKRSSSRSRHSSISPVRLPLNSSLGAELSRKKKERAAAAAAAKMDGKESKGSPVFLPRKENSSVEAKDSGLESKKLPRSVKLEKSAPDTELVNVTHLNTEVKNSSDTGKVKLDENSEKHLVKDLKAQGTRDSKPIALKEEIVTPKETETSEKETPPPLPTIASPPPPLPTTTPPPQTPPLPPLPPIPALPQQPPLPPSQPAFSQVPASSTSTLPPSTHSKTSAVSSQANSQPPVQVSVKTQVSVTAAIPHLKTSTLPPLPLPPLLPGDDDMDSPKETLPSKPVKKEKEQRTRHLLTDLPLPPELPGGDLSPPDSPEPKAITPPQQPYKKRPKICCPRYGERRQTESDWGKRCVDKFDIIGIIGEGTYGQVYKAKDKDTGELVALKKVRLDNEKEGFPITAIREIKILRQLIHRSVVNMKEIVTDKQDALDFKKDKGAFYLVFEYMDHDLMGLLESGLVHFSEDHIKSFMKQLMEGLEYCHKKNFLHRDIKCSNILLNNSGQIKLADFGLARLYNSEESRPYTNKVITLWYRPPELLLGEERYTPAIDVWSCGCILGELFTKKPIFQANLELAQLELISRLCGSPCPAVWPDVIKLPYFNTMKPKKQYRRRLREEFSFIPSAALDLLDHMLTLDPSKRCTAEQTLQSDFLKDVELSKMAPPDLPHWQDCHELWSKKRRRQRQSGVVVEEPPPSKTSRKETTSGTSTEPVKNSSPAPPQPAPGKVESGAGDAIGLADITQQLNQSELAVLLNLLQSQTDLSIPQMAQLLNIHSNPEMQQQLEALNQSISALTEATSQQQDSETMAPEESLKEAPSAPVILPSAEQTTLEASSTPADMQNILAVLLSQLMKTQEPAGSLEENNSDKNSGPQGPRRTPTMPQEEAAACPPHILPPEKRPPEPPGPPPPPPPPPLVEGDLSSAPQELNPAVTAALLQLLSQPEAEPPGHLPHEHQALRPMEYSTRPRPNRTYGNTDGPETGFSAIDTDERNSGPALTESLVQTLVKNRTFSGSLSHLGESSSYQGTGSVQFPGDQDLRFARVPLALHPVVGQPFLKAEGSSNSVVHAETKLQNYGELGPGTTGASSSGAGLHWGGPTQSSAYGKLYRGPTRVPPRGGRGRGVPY
T1 sequence (O75909 whole entry partner): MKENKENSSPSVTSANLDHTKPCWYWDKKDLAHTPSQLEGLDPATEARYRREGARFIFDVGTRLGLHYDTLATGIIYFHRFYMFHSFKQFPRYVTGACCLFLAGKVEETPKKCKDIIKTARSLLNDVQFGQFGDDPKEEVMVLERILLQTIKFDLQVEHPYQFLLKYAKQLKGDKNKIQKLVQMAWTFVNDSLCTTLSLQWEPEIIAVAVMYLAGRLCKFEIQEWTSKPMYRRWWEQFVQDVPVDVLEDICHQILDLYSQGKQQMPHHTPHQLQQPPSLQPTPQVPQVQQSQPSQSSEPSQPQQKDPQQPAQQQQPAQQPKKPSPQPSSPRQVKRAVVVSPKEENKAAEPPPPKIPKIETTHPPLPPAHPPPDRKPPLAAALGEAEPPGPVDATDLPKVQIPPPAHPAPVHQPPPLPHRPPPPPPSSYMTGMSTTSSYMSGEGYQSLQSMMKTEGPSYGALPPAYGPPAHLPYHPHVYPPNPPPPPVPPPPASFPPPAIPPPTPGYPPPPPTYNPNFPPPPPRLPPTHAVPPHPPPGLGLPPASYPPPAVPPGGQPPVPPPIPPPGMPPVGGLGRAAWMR

Fc1cccc(-c2nnc(CNc3nc(N4CCNCC4)nc4c(Br)cnn34)[nH]2)c1 [Example 152, 8-bromo-N-{[5-(3-fluorophenyl)-4H-1,2,4-triazol-3-yl]methyl}-2-(piperazin-1-yl)pyrazolo[1,5-a][1,3,5]triazin-4-amine]
DC50 [1]: 12.7 nM | (IC50 CDK12 high ATP) to (Degradation DC50 CDK12) ratio [1]: 236 | IC50 (CDK2/CycE): 5420 nM

C[C@@H]1CN(c2nc(NCc3nc4c(F)cccc4[nH]3)n3ncc(Br)c3n2)C[C@H](C)O1 [Example 109, 8-bromo-2-[(2R,6S)-2,6-dimethylmorpholin-4-yl]-N-[(4-fluoro-1H-benzimidazol-2-yl)methyl]pyrazolo[1,5-a][1,3,5]triazin-4-amine]
DC50 [1]: 1.09 nM | (IC50 CDK12 high ATP) to (Degradation DC50 CDK12) ratio [1]: 162 | IC50 (CDK2/CycE): 4010 nM

C[C@@H]1CN(c2nc(NCc3nnc(-c4ccccc4)[nH]3)n3ncc(Br)c3n2)C[C@H](C)N1C [Example 125, 8-bromo-N-[(5-phenyl-4H-1,2,4-triazol-3-yl)methyl]-2-[(3R,5S)-3,4,5-trimethylpiperazin-1-yl]pyrazolo[1,5-a][1,3,5]triazin-4-amine]
DC50 [1]: 6.3 nM | (IC50 CDK12 high ATP) to (Degradation DC50 CDK12) ratio [1]: 1724 | IC50 (CDK2/CycE): 13200 nM

Fc1ccc(-c2nnc(CNc3nc(N4CCOCC4)nc4c(Br)cnn34)[nH]2)cc1F [Example 99, 8-bromo-N-{[5-(3,4-difluorophenyl)-4H-1,2,4-triazol-3-yl]methyl}-2-(morpholin-4-yl)pyrazolo[1,5-a][1,3,5]triazin-4-amine]
DC50 [1]: 6.7 nM | IC50 (CDK2/CycE): 1770 nM

CC(C)c1cnn2c(NCc3nc4ccccc4[nH]3)nc(N3CC4(COC4)C3)nc12 [Example 9, N-[(1H-benzimidazol-2-yl)methyl]-2-(2-oxa-6-azaspiro[3.3]heptan-6-yl)-8-(propan-2-yl)pyrazolo[1,5-a][1,3,5]triazin-4-amine]
DC50 [1]: 80.9 nM | (IC50 CDK12 high ATP) to (Degradation DC50 CDK12) ratio [1]: >247 | IC50 (CDK2/CycE): 14700 nM

CCC1COCCN1c1nc(NCc2nc3ccccc3[nH]2)n2ncc(Br)c2n1 (centres unmarked) [Example 116, N-(1H-benzimidazol-2-ylmethyl)-8-bromo-2-(3-ethylmorpholin-4-yl)pyrazolo[1,5-a][1,3,5]triazin-4-amine]
DC50 [1]: 4.44 nM | (IC50 CDK12 high ATP) to (Degradation DC50 CDK12) ratio [1]: 1517 | IC50 (CDK2/CycE): 3010 nM

NCCCc1cccc2[nH]c(CNc3nc(N4CCOCC4)nc4c(Br)cnn34)nc12.O=CO [Example 114, formic acid-N-{[4-(3-aminopropyl)-1H-benzimidazol-2-yl]methyl}-8-bromo-2-(morpholin-4-yl)pyrazolo[1,5-a][1,3,5]triazin-4-amine (1/1)]
DC50 [1]: 38.8 nM | (IC50 CDK12 high ATP) to (Degradation DC50 CDK12) ratio [1]: 210 | IC50 (CDK2/CycE): 5440 nM

C[C@@H]1CN(c2nc(NCc3nc4ccccc4[nH]3)n3ncc(Br)c3n2)C[C@H](C)N1 [Example 142, N-(1H-benzimidazol-2-ylmethyl)-8-bromo-2-[(3R,5S)-3,5-dimethylpiperazin-1-yl]pyrazolo[1,5-a][1,3,5]triazin-4-amine]
DC50 [1]: 1.62 nM | (IC50 CDK12 high ATP) to (Degradation DC50 CDK12) ratio [1]: 6679 | IC50 (CDK2/CycE): > 19800 nM

Fc1cc(-c2nnc(CNc3nc(N4CCOCC4)nc4c(Br)cnn34)[nH]2)cc(F)c1F [Example 100, 8-bromo-2-(morpholin-4-yl)-N-{[5-(3,4,5-trifluorophenyl)-4H-1,2,4-triazol-3-yl]methyl}pyrazolo[1,5-a][1,3,5]triazin-4-amine]
DC50 [1]: 10.2 nM | (IC50 CDK12 high ATP) to (Degradation DC50 CDK12) ratio [1]: 122 | IC50 (CDK2/CycE): 1830 nM

Brc1cnn2c(NCc3nc4ccccc4[nH]3)nc(N3CCN4CCC[C@H]4C3)nc12 [Example 148, N-[(1H-benzimidazol-2-yl)methyl]-8-bromo-2-[(8aS)-hexahydropyrrolo[1,2-a]pyrazin-2 (1 H)-yl]pyrazolo[1,5-a][1,3,5]triazin-4-amine]
DC50 [1]: 16 nM | (IC50 CDK12 high ATP) to (Degradation DC50 CDK12) ratio [1]: 677 | IC50 (CDK2/CycE): 12600 nM

C[C@@H]1CN(c2nc(NCc3nc4ccccc4[nH]3)n3ncc(Br)c3n2)C[C@H](C)N1C [Example 129, N-(1H-benzimidazol-2-ylmethyl)-8-bromo-2-[(3R,5S)-3,4,5-trimethylpiperazin-1-yl]pyrazolo[1,5-a][1,3,5]triazin-4-amine]
DC50 [1]: 4.98 nM | (IC50 CDK12 high ATP) to (Degradation DC50 CDK12) ratio [1]: >3658 | IC50 (CDK2/CycE): > 20000 nM

Brc1cnn2c(NCc3nc4ccccc4[nH]3)nc(N3CCN(C4CC4)CC3)nc12 [Example 138, N-[(1H-benzimidazol-2-yl)methyl]-8-bromo-2-(4-cyclopropylpiperazin-1-yl)pyrazolo[1,5-a][1,3,5]triazin-4-amine]
DC50 [1]: 76 nM | (IC50 CDK12 high ATP) to (Degradation DC50 CDK12) ratio [1]: >263 | IC50 (CDK2/CycE): > 20000 nM

CC1(C)CN(c2nc(NCc3nc4ccccc4[nH]3)n3ncc(C4CC4)c3n2)CCO1 [Example 123, N-[(1H-benzimidazol-2-yl)methyl]-8-cyclopropyl-2-(2,2-dimethylmorpholin-4-yl)pyrazolo[1,5-a][1,3,5]triazin-4-amine]
DC50 [1]: 4.37 nM | (IC50 CDK12 high ATP) to (Degradation DC50 CDK12) ratio [1]: 2883 | IC50 (CDK2/CycE): > 20000 nM

Brc1cnn2c(NCc3nc4ccccc4[nH]3)nc(N3CCN4CCC[C@@H]4C3)nc12 [Example 149, N-[(1H-benzimidazol-2-yl)methyl]-8-bromo-2-[(8aR)-hexahydropyrrolo[1,2-a]pyrazin-2 (1 H)-yl]pyrazolo[1,5-a][1,3,5]triazin-4-amine]
DC50 [1]: 12.6 nM | (IC50 CDK12 high ATP) to (Degradation DC50 CDK12) ratio [1]: 495 | IC50 (CDK2/CycE): 6380 nM

CC(C)c1cnn2c(NCc3nc4ccccc4[nH]3)nc(N3CCOC[C@H]3C)nc12 [Example 7, N-[(1H-benzimidazol-2-yl)methyl]-2-[(3R)-3-methylmorpholin-4-yl]-8-(propan-2-yl)pyrazolo[1,5-a][1,3,5]triazin-4-amine]
DC50 [1]: 63.6 nM | (IC50 CDK12 high ATP) to (Degradation DC50 CDK12) ratio [1]: 161 | IC50 (CDK2/CycE): 6570 nM

Brc1cnn2c(NCc3nc4ccccc4[nH]3)nc(N3C[C@@H]4CCCN[C@@H]4C3)nc12 [Example 146, N-[(1H-benzimidazol-2-yl)methyl]-8-bromo-2-[(4aS,7aS)-octahydro-6H-pyrrolo[3,4-b]pyridin-6-yl]pyrazolo[1,5-a][1,3,5]triazin-4-amine]
DC50 [1]: 3.82 nM | (IC50 CDK12 high ATP) to (Degradation DC50 CDK12) ratio [1]: 2320 | IC50 (CDK2/CycE): 7110 nM

Brc1cnn2c(NCc3nc4ccccc4[nH]3)nc(N3CCNCC3)nc12 [Example 128, N-[(1H-benzimidazol-2-yl)methyl]-8-bromo-2-(piperazin-1-yl)pyrazolo[1,5-a][1,3,5]triazin-4-amine]
DC50 [1]: 1.37 nM | (IC50 CDK12 high ATP) to (Degradation DC50 CDK12) ratio [1]: 7939 | IC50 (CDK2/CycE): 9630 nM

Cc1ccc2[nH]c(CNc3nc(N4CCOCC4)nc4c(Br)cnn34)nc2c1 [Example 157, 8-bromo-N-[(5-methyl-1H-benzimidazol-2-yl)methyl]-2-(morpholin-4-yl)pyrazolo[1,5-a][1,3,5]triazin-4-amine]
DC50 [1]: 0.62 nM | (IC50 CDK12 high ATP) to (Degradation DC50 CDK12) ratio [1]: 1089 | IC50 (CDK2/CycE): 3020 nM
